Data taken from patent US20240293430A1, “WITHAFERIN A AND IMMUNE CHECKPOINT BLOCKER COMBINATION THERAPIES” (University of South Florida, priority 2023, published 2024).

Tests used:
[1] = system: ecto-CRT in LLC, H1650 and A549 cells; test: Ecto-CRT (cell surface calreticulin) by flow cytometry, NSCLC; type: cell-based, mouse (LLC), human (H1650; settings: 48 h
Description: Cells were treated with WFA for 48 h then collected using Accutase cell detachment solution. […] (FIG. 2E) Bone marrow-derived DC were co-cultured with WFA-pretreated LLC cells (24 h) in a ratio 5:1 of DC:LLC cells for 24 h.
In vitro WFA-treated or control cells were collected using Accutase cell detachment solution and stained with FACS-diluted (PBS, 10% FBS, 2 mMEDTA) pre-titrated fluorophore conjugated or primary unconjugated antibody solutions (Table 1) for 30 min on ice in the dark. In case of fluorophore-conjugated antibodies, samples are washed and immediately acquired after adding DAPI viability dye, while samples stained with unconjugated antibodies are incubated with the proper secondary fluorophore-conjugated antibody for 30 min before washing and acquisition. For in vivo experiments, the processed tumor or spleen single cell suspensions were used for surface staining with the pre-titrated antibodies (Table 1) for 30 min on ice in the dark. To exclude the dead cells from the analysis, a fixable live/dead Zombie Aqua viability kit (Biolegend, San Diego, CA, USA) was used according to the manufacturer's protocol. Samples were then fixed using 2% PFA for 15 min then washed and stored at 4° C. before acquisition. […]

[2] = system: tumor-immune infiltration and ecto-CRT in LLC tumors; test: LLC syngeneic mouse model, flow cytometry of collected tumors; type: in vivo, C57BL/6 mice
Description: FIGS. 5A-5G depict that WFA sensitizes flank tumors to α-PD-L1 therapy and targets immunosuppressive MDSCs and T-regs. (FIG. 5A) Establishment of LLC flank tumors and treatment schedule. (FIG. 5B) Tumor volume measurement in mm^3 and tumor weight at the endpoint of the experiment. (FIG. 5C) Change in the levels of ecto-CRT in tumors was measured using flow cytometry. (FIGS. 5D-5G) Flow cytometry was used to determine the change in immune cell infiltration in collected tumors. […] Moreover, WFA reduced the immunosuppressive T regs (FIG. 5F) and CD11b+Gr1+MDSC (FIG. 5G) populations. The means of two independent experiments ±SEM are shown, and the statistical significance was calculated using one-way ANOVA and a Fisher LSD post hoc test where * and #represent p<0.05 and ** and ##represent p<0.01. * Symbols refer to the difference between the vehicle control and WFA, while #refers to comparisons between the vehicle control and WFA+α-PD-L1 combination.
FIGS. 12A-12D depicts the gating strategy used to determine tumor immune infiltration in LLC tumors and spleens. […] Out of the CD11b population, we gated the monocytic CD11b+Ly6C+ and CD11b+Ly6G+granulocytic MDSCs. (FIG. 12B) For the T-cell panel, the total CD-3 population was gated out of the live single cells. Consequently, CD4, CD25+CD4+Tregs and CD8 population were gated out of CD-3 cells based on the FMO controls. (FIGS. 12C-12D) Mice body weights were measured at the endpoint of the experiment and represented as mean±SEM. The means were compared to the vehicle control using Fisher LSD post-hoc test. * p<0.05.
In vitro WFA-treated or control cells were collected using Accutase cell detachment solution and stained with FACS-diluted (PBS, 10% FBS, 2 mMEDTA) pre-titrated fluorophore conjugated or primary unconjugated antibody solutions (Table 1) for 30 min on ice in the dark. In case of fluorophore-conjugated antibodies, samples are washed and immediately acquired after adding DAPI viability dye, while samples stained with unconjugated antibodies are incubated with the proper secondary fluorophore-conjugated antibody for 30 min before washing and acquisition. For in vivo experiments, the processed tumor or spleen single cell suspensions were used for surface staining with the pre-titrated antibodies (Table 1) for 30 min on ice in the dark. To exclude the dead cells from the analysis, a fixable live/dead Zombie Aqua viability kit (Biolegend, San Diego, CA, USA) was used according to the manufacturer's protocol. Samples were then fixed using 2% PFA for 15 min then washed and stored at 4° C. before acquisition. Samples were acquired using a Becton Dickenson Biosciences (BD, Franklin Lakes, NJ, USA) FACS Canto II or LSR II system at the University of South Florida COM Fred Wright Jr Flow Cytometry Core.
C57BL/6 mice were purchased from the Jackson Laboratory (Bar Harbor, ME, USA) and acclimated for a week. To establish the LLC syngeneic tumors, C57BL/6 mice were injected with a half million cells on the right flank and monitored until tumors were first palpable (2-3 mm diameter). […] Treatments were administered every other day with a total of five treatments and mice body weights and tumor volumes were monitored using a caliper (Fisher Scientific, Waltham, MA, USA, 15-077-957). Tumor volumes (mm^3) were calculated using the equation ([…]), where the length is defined as the bigger tumor dimension. […]

CC1=C(CO)C(=O)O[C@@H]([C@@H](C)[C@H]2CC[C@H]3[C@@H]4C[C@H]5O[C@]56[C@@H](O)C=CC(=O)[C@]6(C)[C@H]4CC[C@]23C)C1 [WFA, Withaferin A]
ecto-CRT expression [1]: increased
CD11b+Gr1+ MDSCs in the tumor [2]: reducing
CD25+CD4+ T-regs in the tumor [2]: reducing
levels of ecto-CRT in vivo ([2]; vs control mice): increased
CD8 T-cell infiltration ([2]; vs vehicle control): increasing
T-cell activation markers CD69 and 41BB ([2]; vs vehicle control): not significant
